Test systems include SK-MEL-2 melanoma; A549 NSCLC; ACHN renal; HOP-62 NSCLC; NCI-H460 lung; EKVX NSCLC; SF-295 CNS; T-47D breast; NCI-H226 lung; MDA-MB-435; MDA-N; COLO 205 colon.
Test in all cases: NCI-60 cell line screen, 48 h

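Briefly, cells in 96-well plates were exposed to five compound concentrations for 48 h, and endpoints were estimated by linear interpolation. TGI: total growth inhibition.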

With `CN(C)c1c(C2OC(CO)C(O)C2O)c(=O)c1=O` (centres undefined), the TGI in the assay with SK-MEL-2 melanoma, in the assay on A549 NSCLC, with ACHN renal, with HOP-62 NSCLC, with NCI-H460 lung and with EKVX NSCLC was > 100 µM each time. The TGI in the assay with SF-295 CNS was > 55.4 µM; with T-47D breast, > 100 µM; with NCI-H226 lung, > 100 µM; with MDA-MB-435 it was > 100 µM; with MDA-N, > 100 µM.

In the case of `COc1ccccc1C(O)[C@@H]1C[C@@H]2[C@H]3CC[C@@](C)([C@@H]2O1)C3(C)C` (some centres undefined), the TGI with SK-MEL-2 melanoma was 34.3 µM; with A549 NSCLC, 43.4 µM; in the assay on ACHN renal, 35.4 µM; in the assay with HOP-62 NSCLC it was 35.1 µM; in the assay on NCI-H460 lung, 36.3 µM; in the assay with EKVX NSCLC, > 100 µM. The TGI in the assay with SF-295 CNS came to 34.6 µM; in the assay on T-47D breast, 41.3 µM; in the assay with MDA-MB-435 it was 34.4 µM; in the assay on COLO 205 colon, 35.2 µM; in the assay on MDA-N it was 32 µM.

`CN(CCCNC(=O)c1cn(C)c2c1Cc1ccccc1-2)CCCNC(=O)c1cn(C)c2c1Cc1ccccc1-2`: the TGI was found to be 30.6 µM in the assay on SK-MEL-2 melanoma; 32.3 µM with A549 NSCLC; 22.9 µM with ACHN renal; 29.2 µM in the assay with HOP-62 NSCLC; 23.8 µM in the assay on NCI-H460 lung; 22.6 µM in the assay on EKVX NSCLC. Besides, the TGI in the assay with SF-295 CNS was 26.2 µM; in the assay with NCI-H226 lung it was 41.4 µM; in the assay with MDA-MB-435 it was 5.16 µM; with COLO 205 colon it was 4.05 µM; with MDA-N, 12.3 µM.

Regarding `CCCc1cc(COC)c(C#N)c(=O)[nH]1`, the TGI with A549 NSCLC, in the assay on ACHN renal, in the assay on HOP-62 NSCLC, with NCI-H460 lung, with EKVX NSCLC and in the assay on SF-295 CNS was > 100 µM each time. For the same compound, the TGI in the assay on T-47D breast, in the assay on NCI-H226 lung, with MDA-MB-435, in the assay on COLO 205 colon and in the assay with MDA-N was > 100 µM each time.

Consider `CC(=O)OCC1OC(n2c3c(c(-c4ccc(Cl)cc4)c(C#N)c2=S)CCCC3)C(OC(C)=O)C(OC(C)=O)C1OC(C)=O` (centres undefined), for which the TGI was 63.3 µM in the assay on SK-MEL-2 melanoma; > 100 µM in the assay on A549 NSCLC; > 100 µM in the assay with ACHN renal; > 100 µM in the assay with HOP-62 NSCLC; > 100 µM in the assay on NCI-H460 lung; > 100 µM in the assay with SF-295 CNS. Moreover, the TGI in the assay with T-47D breast, in the assay with NCI-H226 lung, in the assay on MDA-MB-435, with COLO 205 colon and in the assay on MDA-N was > 100 µM in each case.

Turning to `Cc1cc(=O)oc2cc(OCC(O)COC(C)C)ccc12` (centres undefined), the TGI in the assay on A549 NSCLC, in the assay on ACHN renal, in the assay with HOP-62 NSCLC, in the assay on NCI-H460 lung, in the assay on EKVX NSCLC and with SF-295 CNS was > 100 µM in each case. Moreover, the TGI in the assay with T-47D breast, in the assay with COLO 205 colon and in the assay with MDA-N was > 100 µM each time.

Turning to `CC(=O)c1ccc2c(c1)CC1(C2)Cc2cc3c(c(C(=O)O)c2C1)CCC3` (centres undefined), the TGI in the assay on A549 NSCLC, with ACHN renal, in the assay on HOP-62 NSCLC, with NCI-H460 lung, with EKVX NSCLC and in the assay on SF-295 CNS was > 100 µM in each case. Further, the TGI in the assay with T-47D breast, with NCI-H226 lung, with MDA-MB-435, in the assay with COLO 205 colon and in the assay on MDA-N was > 100 µM each time.

As for `COC1CC(OC2C(C)OC(OC3C(C)OC(OC4C(C)OC(O[C@H]5CC[C@@]6(C)C(=CC[C@]7(O)[C@@H]6C[C@@H](OC(C)=O)[C@@]6(C)[C@]7(O)CC[C@@]6(O)C(C)=O)C5)CC4OC)CC3OC)CC2OC)OC(C)C1O` (some centres undefined), the TGI with SK-MEL-2 melanoma, in the assay on A549 NSCLC, in the assay on ACHN renal, in the assay with HOP-62 NSCLC, with EKVX NSCLC and in the assay with SF-295 CNS was > 25 µM throughout. In addition, the TGI with T-47D breast, in the assay with NCI-H226 lung, with MDA-MB-435, in the assay on COLO 205 colon and with MDA-N was > 25 µM each time.

As to `CCOP(=O)(OCC)C(NC(=O)C(C(F)(F)F)C(F)(F)F)c1ccccc1` (centres undefined), the TGI in the assay with SK-MEL-2 melanoma, with A549 NSCLC, in the assay on ACHN renal, with HOP-62 NSCLC, in the assay with NCI-H460 lung and in the assay with EKVX NSCLC was > 100 µM each time. Further, the TGI with SF-295 CNS, in the assay with T-47D breast, with MDA-MB-435, with COLO 205 colon and in the assay on MDA-N was > 100 µM throughout.

With `COc1cccc(C2SC(N)=Nc3c2c(C)nn3C(=O)Cc2ccccc2)c1` (centres undefined), the TGI in the assay on A549 NSCLC, with ACHN renal, in the assay on HOP-62 NSCLC, in the assay on NCI-H460 lung, with EKVX NSCLC and with SF-295 CNS was > 100 µM throughout. Also, the TGI in the assay with T-47D breast, in the assay with NCI-H226 lung, with MDA-MB-435, in the assay with COLO 205 colon and with MDA-N was > 100 µM throughout.

As to `N[C@@H]1CCN(c2c(F)cc3c(=O)c(C(=O)O)cn4c3c2Oc2cc3c(ccc5ccccc53)cc2-4)C1`, the TGI in the assay with SK-MEL-2 melanoma is > 78 µM; in the assay with A549 NSCLC, > 100 µM; in the assay on ACHN renal, > 41.7 µM; in the assay with HOP-62 NSCLC, > 100 µM; in the assay with NCI-H460 lung, 7.01 µM; in the assay with SF-295 CNS, > 100 µM. The TGI in the assay on T-47D breast was 31.3 µM; in the assay with NCI-H226 lung, > 100 µM; with MDA-MB-435, > 100 µM; with COLO 205 colon, > 100 µM; in the assay with MDA-N it was > 100 µM.

In the case of `CSc1ccc(Nc2cc(=O)[nH]c(=O)[nH]2)cc1`, the TGI with SK-MEL-2 melanoma, in the assay on A549 NSCLC, in the assay on ACHN renal, with NCI-H460 lung, in the assay on SF-295 CNS and with T-47D breast was > 100 µM throughout. For the same compound, the TGI with NCI-H226 lung, in the assay on MDA-MB-435, in the assay on COLO 205 colon and in the assay with MDA-N was > 100 µM in each case.

The record behind these values is PubChem BioAssay (NCI).
